Non-standard residues stand in square brackets, D forms with d. Residues, ends and D or L forms follow the SMILES beside them. No end group written: not given here. Tle = CC(C)(C)[C@H](N)C(=O)O; Dab = NCC[C@H](N)C(=O)O; Aib = CC(C)(N)C(=O)O
Legend:
[1] = test system: rat red blood cell suspensions; experiment: hemolysis risk test in rat whole blood; type: cell-based; conditions: for Hemolysis rate (%): Rat, 37 °C 1 h; for hemolysis rates: rat whole blood, concentration range of 1 to 50 µM
Excerpt: Hemolysis refers to the phenomenon in which the membrane of erythrocytes is destroyed, along with increased transparency and a dark red appearance. Certain pharmaceutical ingredients, excipients, etc. may contain hemolytic components, which may cause hemolysis in the human body and cause adverse reactions such as local swelling and blood circulation dysfunction. On the basis of the principle that the hemoglobin released from lysed red blood cells has absorption in the visible light wave band, test compound solutions were added to rat red blood cell suspensions, and after incubation, the degrees of hemolysis were determined using a microplate reader.
This test example assessed whether a polypeptide compound causes hemolytic reactions in rat, rabbit, and human whole blood.
Preparation of red blood cell suspension: 100 µL of fresh whole blood was collected, and 900 µL of 1× PBS solution was then added. The mixture was shaken on a plate shaker at 30 rpm for 5 min and then centrifuged at 1000 g for 5 min, and the supernatant was discarded. The above washing step was repeated until the supernatant no longer appeared red. The suspension was set aside for later use.
Preparation of test polypeptide solutions: An appropriate amount of 1× PBS solution was added to a powdered polypeptide, and the polypeptide was dissolved to form a standard stock solution. […] Meanwhile, blank 1× PBS was used as a negative control, and a 1× PBS solution containing 0.1% Triton X-100 was used as a positive control.
Incubation: A test solution (500 µL) was added to the red blood cell suspension, and then the mixture was well shaken on a plate shaker at 30 rpm for 5 min, incubated at 37 °C for 1 h, and centrifuged at 1000 g for 5 min.
100 µL of the supernatant was transferred to a single well of a microplate. The absorbance at 540 nm was measured using a SpectraMax M5 microplate reader, and data analysis was performed using GraphPad Prism 9. The hemolysis rate (%) was calculated using the formula: (test sample absorbance - negative control absorbance) / (positive control absorbance - negative control absorbance) × 100%. A rate of less than 5% indicates the absence of hemolysis, while a rate of greater than 5% indicates the presence of hemolysis. Table 3. Testing of the hemolysis risk of the polypeptide compound

histamine release = experiment: ability to induce histamine release in rats (plasma); type: in vivo, SD rats; set-up: Histamine levels (sums of detected histamine and 3-methylhistamine): unit not given here; conditions: for Histamine levels (sums of detected histamine and 3-methylhistamine): rat plasma
Method: With male SD rats as test animals, the ability of a polypeptide compound administered via single intravenous bolus injection to induce histamine release in rats (plasma) was studied.
This test was performed synchronously with Test Examples 3.6, with three animals per group and blood collection time points set as follows: before administration, and 2 min, 8 min, and 15 min after the end of intravenous bolus injection.
The histamine and 3-methylhistamine levels at each time point were determined by LC-MS/MS. LC-MS detection of compounds: (1) Chromatographic conditions: mobile phase A: acetonitrile/water/100 mM ammonium acetate, 50/45/5 (v/v/v), 2% FA; mobile phase B: acetonitrile/100 mM ammonium acetate, 95/5 (v/v), 2% FA; flow rate: 0.4 mL/min; chromatography column: Waters BEH HILIC 1.7 µm, 2.1 × 150 mm; column temperature: 50 °C; injection volume: 20 µL. (2) Mass-spectrometric conditions: The mass spectrometry analysis used an electrospray ionization (ESI) source, a positive ion analysis mode, and a multi-reaction monitoring (MRM) scan mode.
Sample pretreatment: A 30 µL plasma sample was taken and added to 200 µL of an acetonitrile solution containing tetradeuterated histamine (D4-histamine, 100 ng/mL). The mixture was vortexed for 1 min and then centrifuged at 5800 rpm for 10 min, and 100 µL of the supernatant was transferred to a sample tray and injected into an instrument for analysis. […] Table 7. Histamine levels at different time points

[2] = nephrotoxicity in rats (blood urea nitrogen, serum creatinine); type: in vivo, SD rats; conditions: for Blood urea nitrogen (BUN) levels / Serum creatinine (Crea) levels: rat serum; for renal safety concerns: within the tested concentration range, 7-day monitoring period
Method: With male SD rats as test animals, the nephrotoxicity of a polypeptide compound administered via single intravenous bolus injection in rats (serum) was studied.
This test was performed synchronously with Test Examples 3.6, with blood collection time points set as follows: before administration (day 0), and days 2, 4, and 7 post-administration. At each time point, 0.3 mL of blood was collected, transferred to a centrifuge tube, and left to stand at room temperature for 1 h. Then the whole blood sample was centrifuged at 4 °C at 4000 g for 5 min, and a serum sample was obtained by separation and cryopreserved at -80 °C.
The blood urea nitrogen (BUN) and serum creatinine levels at each time point were determined through commercially available kits. For blood urea nitrogen, the urease continuous monitoring method was used. For serum creatinine, the sarcosine oxidase method was used. The sample was thawed in a refrigerator at 2 to 8 °C and vortexed for thorough mixing, and 100 µL of the sample was pipetted into a sample cup. The cup was placed in the sample position of a biochemistry analyzer, and assays were performed according to the instructions of the kits. The experimental results are shown in Tables 8-1 and 8-2, FIG. 5A, and FIG. 5B.

[3] = 3 nmol/g, 0 min (before administration)
[4] = 3 nmol/g, 2 min after the end of intravenous bolus injection
[5] = 3 nmol/g, 8 min after the end of intravenous bolus injection
[6] = 3 nmol/g, 15 min after the end of intravenous bolus injection
[7] = 3 nmol/g, day 0 (before administration)
[8] = 0.3 nmol/g, day 0 (before administration)
[9] = 1 nmol/g, day 0 (before administration)

## YGRKKRRQRRRKLSSIESDV [NA-1, YGRKKRRQR RRKLSSIESDV, reference compound]
[1]; 1.0 µM
  Hemolysis rate (%): -0.12%
[1]; 2.5 µM
  Hemolysis rate (%): 0.03%
[1]; 5.0 µM
  Hemolysis rate (%): 0.50%
[1]; 10 µM
  Hemolysis rate (%): 0.48%
[1]; 25 µM
  Hemolysis rate (%): 0.34%
[1]; 50 µM
  Hemolysis rate (%): -0.46%
[1]
  hemolysis rates: less than 5%
Histamine release; [3]
  Histamine levels (sums of detected histamine and 3-methylhistamine): 21.0±5.9
Histamine release; [4]
  Histamine levels (sums of detected histamine and 3-methylhistamine): 390.7±164.2
Histamine release; [5]
  Histamine levels (sums of detected histamine and 3-methylhistamine): 86.6±36.6
Histamine release; [6]
  Histamine levels (sums of detected histamine and 3-methylhistamine): 48.3±19.2
[2]; [7]
  Blood urea nitrogen (BUN) levels: 10.8 ± 1.9 mg/dL
  Serum creatinine (Crea) levels: 0.198 ± 0.007 mg/dL
[2]; 3 nmol/g, day 2
  Blood urea nitrogen (BUN) levels: 14.8 ± 1.9 mg/dL
  Serum creatinine (Crea) levels: 0.215 ± 0.003 mg/dL
[2]; 3 nmol/g, day 4
  Blood urea nitrogen (BUN) levels: 17.2 ± 3.6 mg/dL
  Serum creatinine (Crea) levels: 0.208 ± 0.008 mg/dL
[2]; 3 nmol/g, day 7
  Blood urea nitrogen (BUN) levels: 19 ± 3.3 mg/dL
  Serum creatinine (Crea) levels: 0.209 ± 0.009 mg/dL
[2]; rats, 3 nmol/g, day 4 and day 7
  increase of blood urea nitrogen level compared to before administration: ≤ 2 fold
[2]; rats
  renal safety concerns: neither NA-1 nor polypeptide compound 14 caused significant renal safety concerns

## CC(C)[C@H](NC(=O)[C@H](CC(=O)O)NC(=O)[C@@H](NC(=O)[C@@H](NC(=O)[C@@H](NC(=O)[C@@H](NC(=O)[C@H](CCN)NC(=O)C(C)(C)NC(=O)CNC(=O)[C@@H](CCCNC(=N)N)NC(=O)[C@@H](CCCNC(=N)N)NC(=O)[C@@H](CCCNC(=N)N)NC(=O)[C@@H](CCC(N)=O)NC(=O)[C@@H](CCCNC(=N)N)NC(=O)[C@@H](CCCNC(=N)N)NC(=O)[C@@H](CCCCN)NC(=O)[C@@H](CCCCN)NC(=O)[C@@H](CCCNC(=N)N)NC(=O)CNC(=O)[C@H](N)Cc1ccc(O)cc1)[C@@H](C)O)C(C)(C)C)C(C)(C)C)[C@@H](C)O)C(=O)O [Polypeptide compound 14, y-G-r-k-k-r-r-q-r-r-r-G-Aib-Dab-T-Tle-Tle-T-D-V] (H-[dY]G[dR][dK][dK][dR][dR][dQ][dR][dR][dR]G[Aib][Dab]T[Tle][Tle]TDV-OH)
[1]; 1.0 µM
  Hemolysis rate (%): 0.11%
[1]; 2.5 µM
  Hemolysis rate (%): 0.17%
[1]; 5.0 µM
  Hemolysis rate (%): -0.11%
[1]; 10 µM
  Hemolysis rate (%): 0.00%
[1]; 25 µM
  Hemolysis rate (%): -0.16%
[1]; 50 µM
  Hemolysis rate (%): 0.12%
[1]
  hemolysis rates: less than 5%
Histamine release; 0.3 nmol/g, 0 min (before administration)
  Histamine levels (sums of detected histamine and 3-methylhistamine): 34.1±21.7
Histamine release; 0.3 nmol/g, 2 min after the end of intravenous bolus injection
  Histamine levels (sums of detected histamine and 3-methylhistamine): 18.2±5.2
Histamine release; 0.3 nmol/g, 8 min after the end of intravenous bolus injection
  Histamine levels (sums of detected histamine and 3-methylhistamine): 38.7±16.8
Histamine release; 0.3 nmol/g, 15 min after the end of intravenous bolus injection
  Histamine levels (sums of detected histamine and 3-methylhistamine): 45.3±3.3
Histamine release; 1 nmol/g, 0 min (before administration)
  Histamine levels (sums of detected histamine and 3-methylhistamine): 45.5±14.4
Histamine release; 1 nmol/g, 2 min after the end of intravenous bolus injection
  Histamine levels (sums of detected histamine and 3-methylhistamine): 41.9±23.3
Histamine release; 1 nmol/g, 8 min after the end of intravenous bolus injection
  Histamine levels (sums of detected histamine and 3-methylhistamine): 59.4±53.5
Histamine release; 1 nmol/g, 15 min after the end of intravenous bolus injection
  Histamine levels (sums of detected histamine and 3-methylhistamine): 71.4±38.7
Histamine release; [3]
  Histamine levels (sums of detected histamine and 3-methylhistamine): 50.2±28.7
Histamine release; [4]
  Histamine levels (sums of detected histamine and 3-methylhistamine): 754.7±448.6
Histamine release; [5]
  Histamine levels (sums of detected histamine and 3-methylhistamine): 558.0±405.6
Histamine release; [6]
  Histamine levels (sums of detected histamine and 3-methylhistamine): 265.3±145.7
Histamine release; rats, medium (1 nmol/g) or low (0.3 nmol/g) dose, within 15 min
  increase in histamine levels: no significant increase in histamine levels
Histamine release; rats, same high dose (3 nmol/g), 2 min
  peak histamine release relative to NA-1: nearly twice that of NA-1
[2]; [8]
  Blood urea nitrogen (BUN) levels: 11.8 ± 0.1 mg/dL
  Serum creatinine (Crea) levels: 0.192 ± 0.006 mg/dL
[2]; 0.3 nmol/g, day 2
  Blood urea nitrogen (BUN) levels: 13.7 ± 3.7 mg/dL
  Serum creatinine (Crea) levels: 0.200 ± 0.015 mg/dL
[2]; 0.3 nmol/g, day 4
  Blood urea nitrogen (BUN) levels: 16.6 ± 4.6 mg/dL
  Serum creatinine (Crea) levels: 0.212 ± 0.024 mg/dL
[2]; 0.3 nmol/g, day 7
  Blood urea nitrogen (BUN) levels: 15.3 ± 5.2 mg/dL
  Serum creatinine (Crea) levels: 0.205 ± 0.023 mg/dL
[2]; [9]
  Blood urea nitrogen (BUN) levels: 14.2 ± 3.0 mg/dL
  Serum creatinine (Crea) levels: 0.195 ± 0.013 mg/dL
[2]; 1 nmol/g, day 2
  Blood urea nitrogen (BUN) levels: 15.5 ± 1.8 mg/dL
  Serum creatinine (Crea) levels: 0.203 ± 0.018 mg/dL
[2]; 1 nmol/g, day 4
  Blood urea nitrogen (BUN) levels: 17.1 ± 2.7 mg/dL
  Serum creatinine (Crea) levels: 0.208 ± 0.017 mg/dL
[2]; 1 nmol/g, day 7
  Blood urea nitrogen (BUN) levels: 13.7 ± 1.4 mg/dL
  Serum creatinine (Crea) levels: 0.221 ± 0.005 mg/dL
[2]; [7]
  Blood urea nitrogen (BUN) levels: 16.3 ± 1.0 mg/dL
  Serum creatinine (Crea) levels: 0.22 ± 0.015 mg/dL
[2]; 3 nmol/g, day 2
  Blood urea nitrogen (BUN) levels: 16.2 ± 0.7 mg/dL
  Serum creatinine (Crea) levels: 0.208 ± 0.006 mg/dL
[2]; 3 nmol/g, day 4
  Blood urea nitrogen (BUN) levels: 16.0 ± 2.0 mg/dL
  Serum creatinine (Crea) levels: 0.226 ± 0.012 mg/dL
[2]; 3 nmol/g, day 7
  Blood urea nitrogen (BUN) levels: 14.5 ± 1.7 mg/dL
  Serum creatinine (Crea) levels: 0.233 ± 0.014 mg/dL
[2]; rats
  renal safety concerns: neither NA-1 nor polypeptide compound 14 caused significant renal safety concerns

— patent EP4650362A1, “NEUROPROTECTIVE PSD-95 POLYPEPTIDE INHIBITOR AND USE THEREOF” (Beijing Tuo Jie Biopharmaceutical Co. Ltd., priority 2023, dated 2024)
